Measurements: ChEMBL document CHEMBL1146171, “Discovery and initial development of a novel class of antibacterials: inhibitors of Staphylococcus aureus transcription/translation” (Bioorg Med Chem Lett, 2006)
Values after ≈ are worked out from the molar mass of the structure shown.

What was measured:
Type in all cases: functional
[1] = test system: Staphylococcus aureus; assay: Inhibition of coupled transcription/translation in Staphylococcus aureus at 100 uM; details: for IC50 / inhibition at 100 µM: Staphylococcus aureus
[2] = test system: Staphylococcus aureus; assay: Antibacterial activity against Staphylococcus aureus
[3] = test system: Staphylococcus aureus; assay: Inhibition of coupled transcription/translation in Staphylococcus aureus at 30 uM
[4] = Staphylococcus aureus, read-out: MIC

SMILES | IC50 [1] | inhibition at 100 µM [1] | MIC [2, 4] | MIC [2] | inhibition at 30 µM [3] | Inhibition [1]
CC1(c2ccccc2)CCCN(S(=O)(=O)c2ccc(C(=O)Nc3ccc(Br)cc3C(=O)O)cc2)C1 (stereo unspecified) | 30 µM | 96% | 16 µg/mL (≈ 28.7 µM) | – | – | –
CC1(C)Cc2ccccc2N1S(=O)(=O)c1ccc(C(=O)Nc2ccc(Br)cc2C(=O)O)cc1 | 55 µM | 87% | 2 µg/mL (≈ 3.78 µM) | – | – | –
CCCN(CCC)S(=O)(=O)c1ccc(C(=O)Nc2ccc(Br)cc2C(=O)O)cc1 | – | 61% | 8 µg/mL (≈ 16.5 µM) | – | – | –
O=C(Nc1cc(F)c(F)cc1C(=O)O)c1ccc(S(=O)(=O)Nc2cccc(C(F)(F)F)c2)cc1 | – | 55% | > 128 µg/mL | – | – | –
CCCN(c1ccccc1)S(=O)(=O)c1ccc(C(=O)Nc2ccc(Br)cc2C(=O)O)cc1 | – | 80% | 16 µg/mL (≈ 30.9 µM) | – | – | –
CCCN(CCC)S(=O)(=O)c1ccc(C(=O)Nc2ccc3ccccc3c2)cc1 | – | 10% | > 128 µg/mL | – | – | –
O=C(Nc1ccc(Br)cc1C(=O)O)c1ccc(S(=O)(=O)N2CCCC23CCC(O)CC3)cc1 (stereo unspecified) | – | 22% | 8 µg/mL (≈ 14.9 µM) | – | – | –
N#Cc1cccc(NS(=O)(=O)c2ccc(C(=O)Nc3ccc(Br)cc3C(=O)O)cc2)c1 | – | 30% | 64 µg/mL (≈ 128 µM) | – | – | –
CCCN(c1ccccc1)S(=O)(=O)c1ccc(C(=O)Nc2ccc(I)cc2C(=O)O)cc1 | – | 90% | 16 µg/mL (≈ 28.3 µM) | – | – | –
O=C(Nc1ccc(Br)cc1C(=O)O)c1ccc(S(=O)(=O)N2CCC(Nc3ccccc3)CC2)cc1 | – | 62% | 32 µg/mL (≈ 57.3 µM) | – | – | –
O=C(Nc1ccc(Br)cc1C(=O)O)c1ccc(S(=O)(=O)N2CCc3ccc(Cl)cc32)cc1 | 40 µM | 96% | 1 µg/mL (≈ 1.87 µM) | 0.5 µg/mL (≈ 0.933 µM) | 93% | –
CN(c1ccc(Cl)cc1)S(=O)(=O)c1ccc(C(=O)Nc2ccc(F)cc2C(=O)O)cc1 | – | 30% | > 128 µg/mL | – | – | –
O=C(Nc1ccc(Br)cc1C(=O)O)c1ccc(S(=O)(=O)Nc2cccc(OCc3ccccc3)c2)cc1 | – | 75% | 8 µg/mL (≈ 13.8 µM) | – | – | –
O=C(Nc1ccc(Br)cc1C(=O)O)c1ccc(S(=O)(=O)N2CCC(Cc3ccccc3)CC2)cc1 | 28 µM | 98% | 16 µg/mL (≈ 28.7 µM) | – | – | –
CN(c1ccc(Cl)cc1)S(=O)(=O)c1ccc(C(=O)Nc2ccc(Br)cc2C(=O)O)cc1 | – | 75% | 8 µg/mL (≈ 15.3 µM) | 16 µg/mL (≈ 30.5 µM) | – | 80%
O=C(Nc1ccc(Br)cc1C(=O)O)c1ccc(S(=O)(=O)N2CCCCC2)cc1 | – | – | 16 µg/mL (≈ 34.2 µM) | – | – | 35%
COCCN(CCOC)S(=O)(=O)c1ccc(C(=O)Nc2ccc(Br)cc2C(=O)O)cc1 | – | 10% | 32 µg/mL (≈ 62.1 µM) | – | – | –
O=C(Nc1ccc(Br)cc1C(=O)O)c1ccc(S(=O)(=O)N2CCC(c3ccccc3)CC2)cc1 | 55 µM | 96% | 8 µg/mL (≈ 14.7 µM) | – | – | –
Cc1ccc(C(=O)Nc2ccc(Br)cc2C(=O)O)cc1S(=O)(=O)NC1Cc2ccccc2C1 | – | – | 0.25 µg/mL (≈ 0.472 µM) | – | 20% | –
O=C(Nc1ccc(Br)cc1C(=O)O)c1cc(S(=O)(=O)NC2Cc3ccccc3C2)ccc1Br | – | – | 0.25 µg/mL (≈ 0.421 µM) | – | 30% | –
O=C(Nc1ccc(Br)cc1C(=O)O)c1ccc(S(=O)(=O)N2CC3CCCC(C3)C2)cc1 | 60 µM | 88% | 4 µg/mL (≈ 7.88 µM) | – | – | –
CN(c1ccc(Cl)cc1)S(=O)(=O)c1ccc(C(=O)Nc2cc(Cl)ccc2C(=O)O)cc1 | – | 47% | 64 µg/mL (≈ 134 µM) | – | – | –

SMILES | IC50 [1] | inhibition at 100 µM [1] | MIC [2, 4] | MIC [2] | inhibition at 30 µM [3] | Inhibition [1]
O=C(Nc1ccc(Br)cc1C(=O)O)c1cc(S(=O)(=O)Nc2ccc3c(c2)OCCO3)ccc1Br | – | – | 0.5 µg/mL (≈ 0.817 µM) | – | 15% | –
CN(c1ccc(Cl)cc1)S(=O)(=O)c1ccc(C(=O)Nc2ccc(Cl)cc2C(=O)O)cc1 | – | 85% | 16 µg/mL (≈ 33.4 µM) | – | – | –
COc1cccc(NS(=O)(=O)c2ccc(C(=O)Nc3ccc(Br)cc3C(=O)O)cc2)c1 | – | 20% | 16 µg/mL (≈ 31.7 µM) | – | – | –
CCCN(c1ccccc1)S(=O)(=O)c1ccc(C(=O)Nc2ccc(Cl)cc2C(=O)O)cc1 | – | 50% | 32 µg/mL (≈ 67.7 µM) | – | – | –
O=C(Nc1ccc(Br)cc1C(=O)O)c1ccc(S(=O)(=O)N2CC3CCC2CC3)cc1 | – | 57% | 8 µg/mL (≈ 16.2 µM) | – | – | –
CCCN(CCC)S(=O)(=O)c1ccc(C(=O)Nc2cc3ccccc3cc2O)cc1 | – | 10% | > 128 µg/mL | – | – | –
CN(c1ccc(Cl)cc1)S(=O)(=O)c1ccc(C(=O)Nc2ccc(Cl)c(C(=O)O)c2)cc1 | – | 10% | > 128 µg/mL | – | – | –
COc1ccc(N(C)S(=O)(=O)c2ccc(C(=O)Nc3ccc(Br)cc3C(=O)O)cc2)cc1 | – | 50% | 32 µg/mL (≈ 61.6 µM) | – | – | –
COc1ccc(NC(=O)c2ccc(S(=O)(=O)Nc3cccc(C(F)(F)F)c3)cc2)c(C(=O)O)c1 | – | 35% | > 128 µg/mL | – | – | –
O=C(Nc1ccc(Br)cc1C(=O)O)c1ccc(S(=O)(=O)N2CCC[C@@H]2CO)cc1 | – | 19% | > 128 µg/mL | – | – | –
CCCN(CCC)S(=O)(=O)c1ccc(C(=O)Nc2cc3ccccc3cc2C(=O)O)cc1 | – | 30% | 64 µg/mL (≈ 141 µM) | – | – | –
O=C(Nc1ccc(Br)cc1C(=O)O)c1ccc(S(=O)(=O)N2CCc3cc(Cl)ccc32)cc1 | 80 µM | 71% | 1 µg/mL (≈ 1.87 µM) | – | – | –
COC(=O)c1cc(Br)ccc1NC(=O)c1ccc(S(=O)(=O)Nc2cccc(OCc3ccccc3)c2)cc1 | – | 4% | > 128 µg/mL | – | – | –
CCCN(c1ccccc1)S(=O)(=O)c1ccc(C(=O)Nc2ccc(C)cc2C(=O)O)cc1 | – | 34% | 128 µg/mL (≈ 283 µM) | – | – | –
O=C(Nc1ccc(Br)cc1C(=O)O)c1ccc(S(=O)(=O)N2Cc3ccccc3C2)cc1 | – | 77% | 4 µg/mL (≈ 7.98 µM) | – | – | –
O=C(Nc1ccc(Br)cc1C(=O)O)c1ccc(S(=O)(=O)Nc2ccc(Cl)cc2)cc1 | – | 45% | 16 µg/mL (≈ 31.4 µM) | – | – | –
O=C(Nc1ccc(Br)cc1C(=O)O)c1ccc(S(=O)(=O)N2CCCC23CCCCC3)cc1 | 60 µM | 90% | 4 µg/mL (≈ 7.67 µM) | – | – | –
CCCN(CCC)S(=O)(=O)c1ccc(C(=O)Nc2c(OC)cc(OC)cc2C(=O)O)cc1 | – | 0% | > 128 µg/mL | – | – | –
Cc1cc(Br)ccc1NC(=O)c1ccc(S(=O)(=O)N(C)c2ccc(Cl)cc2)cc1 | – | 12% | > 128 µg/mL | – | – | –
O=C(Nc1ccc(Br)cc1C(=O)O)c1ccc(S(=O)(=O)N2CCc3ccccc3C2)cc1 | 60 µM | 84% | 8 µg/mL (≈ 15.5 µM) | – | – | –
O=C(Nc1ccc(Br)cc1C(=O)O)c1ccc(S(=O)(=O)Nc2cccc(C(F)(F)F)c2)cc1 | – | 65% | 8 µg/mL (≈ 14.7 µM) | – | – | –
Cl.O=C(Nc1ccc(Br)cc1C(=O)O)c1ccc(S(=O)(=O)N2CCCCC2)cc1 | – | 34% | 16 µg/mL | – | – | –
